Reference: PubChem BioAssay AID720689 (NMMLSC, 2013)

Experiment: Rab7 GTP binding inhibition, two preparations – biochemical, Rab7 wildtype, bead flow cytometry, two protein sources, mechanism study, late-stage follow-up (AID 720689)
Details: GST-Rab7 beads, Bodipy-FL-GTP binding

EC50 (protein source 1) | EC50 (protein source 2) | Structure (SMILES)
219 nM | 205 nM | CC1(C)Cc2c(sc(NC(=S)NC(=O)c3ccc(N=[N+]=[N-])cc3)c2C(=O)O)CO1
1260 nM | 1240 nM | CC1(C)Cc2c(sc(NC(=S)NC(=O)c3cccc(N=[N+]=[N-])c3)c2C(=O)O)CO1
